{
  "source": "patent US20070154981A1",
  "about": "“Insulin-producing cells derived from stem cells” (THE BOARD of TRUSTEES of the LELAND STANFORD JUNIOR …, priority 2003, published 2007)",
  "tested_on": "human NS cells",
  "assay": "Insulin content of IPCCs derived from human NS cells, by ELISA",
  "format": "cell-based",
  "description": "Human NS cells from StemCells Inc. (Palo Alto, Calif.). Until stage 1, cells are maintained in neurospheres as described in Uchida et al, 2000, Proc Natl Acad Sci U S A. 2000 Dec. 19;97(26):14720-5. […]",
  "data": [
    {"molecule": "CC1=C(/C=C/C(C)=C/C=C/C(C)=C/C(=O)O)C(C)(C)CCC1", "note": "[retinoic acid, all-trans-Retinoic acid]", "values": [
      {"measurement": "insulin levels relative to levels found in human pancreatic islets", "setting": "1 micromolar retinoic acid for 6 days, stage 2 IPCCs, ELISA", "value": 0.1, "unit": "%"},
      {"measurement": "insulin production compared with cells cultured with SHH and retinoic acid", "setting": "retinoic acid alone versus SHH and retinoic acid", "value": "higher level of insulin production"}
    ]}
  ]
}
